PubChem BioAssay AID248 (DTP/NCI, 2004)
Inconclusive results and toxic doses are left out.

System: L1210 leukemia ip in BDF1 mice, survival T/C
Test: NCI In Vivo Anticancer Drug Screen. Data for tumor model L1210 Leukemia (intraperitoneal) in B6D2F1 (BDF1) mice
Conditions: endpoint: mean survival time, higher = longer survival
Outline: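 Tumor cells were implanted, animals were treated, and survival was followed. The result divides the treated measurement by the vehicle-control measurement.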

[1] = dose: 100.0 mg/kg/injection, schedule: Q01DX009 (ip), vehicle: Klucel (hydroxypropylcellulose) (HPC)
[2] = dose: 200.0 mg/kg/injection, schedule: Q01DX009 (ip), vehicle: Klucel (hydroxypropylcellulose) (HPC)
[3] = dose: 400.0 mg/kg/injection, schedule: Q01DX009 (ip), vehicle: Klucel (hydroxypropylcellulose) (HPC)
[4] = dose: 100.0 mg/kg/injection, schedule: Q01DX009 (ip), vehicle: saline
[5] = dose: 100.0 mg/kg/injection, schedule: Q04DX003 (ip), vehicle: saline with Tween-80
[6] = dose: 200.0 mg/kg/injection, schedule: Q04DX003 (ip), vehicle: saline with Tween-80
[7] = dose: 400.0 mg/kg/injection, schedule: Q04DX003 (ip), vehicle: saline with Tween-80
[8] = dose: 100.0 mg/kg/injection, schedule: Q01DX001 (ip), vehicle: carboxymethylcellulose (CMC)
[9] = dose: 200.0 mg/kg/injection, schedule: Q01DX001 (ip), vehicle: carboxymethylcellulose (CMC)
[10] = dose: 400.0 mg/kg/injection, schedule: Q01DX001 (ip), vehicle: carboxymethylcellulose (CMC)
[11] = dose: 100.0 mg/kg/injection, schedule: Q01DX009 (ip), vehicle: saline with Tween-80
[12] = dose: 200.0 mg/kg/injection, schedule: Q01DX009 (ip), vehicle: saline with Tween-80
[13] = dose: 400.0 mg/kg/injection, schedule: Q01DX009 (ip), vehicle: saline with Tween-80
[14] = dose: 100.0 mg/kg/injection, schedule: Q04DX003 (ip), vehicle: Klucel (hydroxypropylcellulose) (HPC)
[15] = dose: 200.0 mg/kg/injection, schedule: Q04DX003 (ip), vehicle: Klucel (hydroxypropylcellulose) (HPC)
[16] = dose: 400.0 mg/kg/injection, schedule: Q04DX003 (ip), vehicle: Klucel (hydroxypropylcellulose) (HPC)

For `C/C(N=Nc1ccccc1[N+](=O)[O-])=N\Nc1ccccc1`, the T/C (dose: 50.0 mg/kg/injection, schedule: Q01DX009 (ip), vehicle: Klucel (hydroxypropylcellulose) (HPC)) was 95 % of control, the T/C [1] was 97 % of control and the T/C [2] was 95 % of control. For the same molecule, the T/C [3] was 95 % of control.

`CCCCCOCC` was tested, and the T/C (dose: 100.0 mg/kg/injection, schedule: Q01DX001 (ip), vehicle: saline) was 103 % of control, the T/C [4] was 96 % of control and the T/C (dose: 200.0 mg/kg/injection, schedule: Q01DX001 (ip), vehicle: saline) was 105 % of control. For the same molecule, the T/C (dose: 200.0 mg/kg/injection, schedule: Q01DX009 (ip), vehicle: saline) was 101 % of control, the T/C (dose: 400.0 mg/kg/injection, schedule: Q01DX001 (ip), vehicle: saline) was 103 % of control and the T/C (dose: 400.0 mg/kg/injection, schedule: Q01DX009 (ip), vehicle: saline) was 101 % of control.

With `CN(C)C(=S)SCC(=O)c1ccccc1` the T/C (dose: 2.5 mg/kg/injection, schedule: Q01DX009 (ip), vehicle: saline with Tween-80) was 93 % of control, the T/C (dose: 5.0 mg/kg/injection, schedule: Q01DX009 (ip), vehicle: saline with Tween-80) was 89 % of control and the T/C (dose: 10.0 mg/kg/injection, schedule: Q01DX009 (ip), vehicle: saline with Tween-80) was 105 % of control.

In the case of `C/C=C(\C)C(=O)Nc1cccc(O)c1`, the T/C [5] was 90 % of control, the T/C [6] was 93 % of control and the T/C [7] was 90 % of control.

In the case of `CCCc1cccc[n+]1CC(=O)c1ccccc1`, the T/C (dose: 6.25 mg/kg/injection, schedule: Q01DX009 (ip), vehicle: saline sonified) was 115 % of control, the T/C (dose: 12.5 mg/kg/injection, schedule: Q01DX009 (ip), vehicle: saline sonified) was 107 % of control and the T/C (dose: 25.0 mg/kg/injection, schedule: Q01DX009 (ip), vehicle: saline sonified) was 91 % of control.

In the case of `O=C(/C(=C/c1ccc2c(c1)OCO2)c1ccccc1)c1ccc(OCCN2CCCC2)cc1`, the T/C [8] was 95 % of control, the T/C [9] was 106 % of control and the T/C [10] was 95 % of control.

With `OB(O)c1ccc(F)cc1` the T/C (dose: 100.0 mg/kg/injection, schedule: Q04DX003 (ip), vehicle: acetone) was 101 % of control, the T/C (dose: 200.0 mg/kg/injection, schedule: Q04DX003 (ip), vehicle: acetone) was 98 % of control and the T/C (dose: 400.0 mg/kg/injection, schedule: Q04DX003 (ip), vehicle: acetone) was 97 % of control.

`C=CCOCC(O)C[As](=O)(O)c1ccc(OC)cc1` (stereo unspecified) was tested, and the T/C (dose: 25.0 mg/kg/injection, schedule: Q04DX003 (ip), vehicle: saline with Tween-80) was 87 % of control.

With `O=C(NS(=O)(=O)c1ccc(Cl)cc1)c1cccc2ccccc12` the T/C [11] was 91 % of control.

With `COc1cccc(/C=C/C(=O)c2ccc(Cl)cc2)c1OC` the T/C [11] was 101 % of control, the T/C [5] was 96 % of control and the T/C [12] was 88 % of control. The T/C [6] was 91 % of control, the T/C [13] was 87 % of control and the T/C [7] was 90 % of control.

With `CCO/C=N/c1onc(C)c1C#N` the T/C (dose: 100.0 mg/kg/injection, schedule: Q04DX003 (ip), vehicle: carboxymethylcellulose (CMC)) was 102 % of control, the T/C (dose: 200.0 mg/kg/injection, schedule: Q04DX003 (ip), vehicle: carboxymethylcellulose (CMC)) was 100 % of control and the T/C (dose: 400.0 mg/kg/injection, schedule: Q04DX003 (ip), vehicle: carboxymethylcellulose (CMC)) was 90 % of control.

For `CS(=O)(=O)/C=C\c1ccccc1`, the T/C (dose: 100.0 mg/kg/injection, schedule: Q04DX003 (ip), vehicle: saline) was 101 % of control, the T/C (dose: 200.0 mg/kg/injection, schedule: Q04DX003 (ip), vehicle: saline) was 95 % of control and the T/C (dose: 400.0 mg/kg/injection, schedule: Q04DX003 (ip), vehicle: saline) was 103 % of control.

In the case of `CC1CC(C(=O)O)C(Cc2ccc([N+](=O)[O-])cc2)C1=O` (stereo unspecified), the T/C (dose: 100.0 mg/kg/injection, schedule: Q04DX002 (ip), vehicle: Klucel (hydroxypropylcellulose) (HPC)) was 93 % of control, the T/C (dose: 200.0 mg/kg/injection, schedule: Q04DX002 (ip), vehicle: Klucel (hydroxypropylcellulose) (HPC)) was 93 % of control and the T/C (dose: 400.0 mg/kg/injection, schedule: Q04DX002 (ip), vehicle: Klucel (hydroxypropylcellulose) (HPC)) was 89 % of control.

With `CC(=O)Nc1ccc(Br)cc1` the T/C (dose: 50.0 mg/kg/injection, schedule: Q01DX001 (ip), vehicle: carboxymethylcellulose (CMC)) was 92 % of control, the T/C [8] was 93 % of control and the T/C [1] was 103 % of control. For the same molecule, the T/C [14] was 98 % of control, the T/C [9] was 93 % of control and the T/C [2] was 113 % of control. For the same molecule, the T/C [15] was 104 % of control and the T/C [16] was 106 % of control.

`CCN(CC)CCCC(C)Nc1ccccn1` (stereo unspecified) was tested, and the T/C (dose: 75.0 mg/kg/injection, schedule: Q01DX001 (ip), vehicle: carboxymethylcellulose (CMC)) was 102 % of control and the T/C (dose: 150.0 mg/kg/injection, schedule: Q01DX001 (ip), vehicle: carboxymethylcellulose (CMC)) was 100 % of control.

With `CN(C)/N=N/c1nc(Cc2ccccc2)[nH]c1C(N)=O` the T/C [1] was 108 % of control, the T/C (dose: 177.0 mg/kg/injection, schedule: Q01DX009 (ip), vehicle: Klucel (hydroxypropylcellulose) (HPC)) was 116 % of control and the T/C [2] was 112 % of control. For the same molecule, the T/C (dose: 266.0 mg/kg/injection, schedule: Q01DX009 (ip), vehicle: Klucel (hydroxypropylcellulose) (HPC)) was 122 % of control, the T/C (dose: 266.0 mg/kg/injection, schedule: Q04DX003 (ip), vehicle: Klucel (hydroxypropylcellulose) (HPC)) was 109 % of control and the T/C [3] was 155 % of control. The T/C [16] was 109 % of control and the T/C (dose: 600.0 mg/kg/injection, schedule: Q04DX003 (ip), vehicle: Klucel (hydroxypropylcellulose) (HPC)) was 106 % of control.

For `CCCCCCCCCCCCCCOc1ccc2ccccc2c1`, the T/C [14] was 94 % of control, the T/C [15] was 96 % of control and the T/C [16] was 91 % of control.

`CC1(C)N=C(N)N=C(N)N1c1cccc(CNc2ccccc2)c1` was tested, and the T/C (dose: 3.12 mg/kg/injection, schedule: Q01DX001 (ip), vehicle: saline) was 95 % of control, the T/C (dose: 6.25 mg/kg/injection, schedule: Q01DX001 (ip), vehicle: saline) was 103 % of control and the T/C (dose: 12.5 mg/kg/injection, schedule: Q01DX001 (ip), vehicle: saline) was 98 % of control. The T/C (dose: 25.0 mg/kg/injection, schedule: Q01DX001 (ip), vehicle: saline) was 93 % of control.

With `COC1CC(N=[N+]=[N-])C(OS(C)(=O)=O)C(C)O1` (stereo unspecified) the T/C [8] was 98 % of control, the T/C [11] was 109 % of control and the T/C [5] was 107 % of control. The T/C [9] was 106 % of control, the T/C [12] was 94 % of control and the T/C [6] was 107 % of control. The T/C [10] was 98 % of control, the T/C [13] was 109 % of control and the T/C [7] was 108 % of control.

For `Cc1ccccc1N=Nc1c(O)n(-c2ccccc2C)c(=S)n(-c2ccccc2)c1=O`, the T/C (dose: 75.0 mg/kg/injection, schedule: Q01DX003 (ip), vehicle: Klucel (hydroxypropylcellulose) (HPC)) was 88 % of control, the T/C (dose: 150.0 mg/kg/injection, schedule: Q01DX003 (ip), vehicle: Klucel (hydroxypropylcellulose) (HPC)) was 104 % of control and the T/C (dose: 300.0 mg/kg/injection, schedule: Q01DX003 (ip), vehicle: Klucel (hydroxypropylcellulose) (HPC)) was 86 % of control.

For `CN(C)CC(=O)c1ccc(Cl)cc1`, the T/C (dose: 50.0 mg/kg/injection, schedule: Q01DX009 (ip), vehicle: saline) was 87 % of control and the T/C [4] was 102 % of control.

`CCC1C(=O)C=C(C)OC1=O` (stereo unspecified) was tested, and the T/C (dose: 75.0 mg/kg/injection, schedule: Q01DX009 (ip), vehicle: Klucel (hydroxypropylcellulose) (HPC)) was 107 % of control, the T/C (dose: 150.0 mg/kg/injection, schedule: Q01DX009 (ip), vehicle: Klucel (hydroxypropylcellulose) (HPC)) was 101 % of control and the T/C (dose: 300.0 mg/kg/injection, schedule: Q01DX009 (ip), vehicle: Klucel (hydroxypropylcellulose) (HPC)) was 86 % of control.

For `NCCOP(=O)(O)OCC1OC(n2cnc3c(N)ncnc32)C(O)C1O` (stereo unspecified), the T/C (dose: 100.0 mg/kg/injection, schedule: Q01DX005 (ip), vehicle: saline) was 92 % of control and the T/C (dose: 200.0 mg/kg/injection, schedule: Q01DX005 (ip), vehicle: saline) was 92 % of control.
